The test system of one series is HSV-1. Put plainly: In vitro antiviral assay for HSV-1. Format: cell-based, Herpes Simplex Virus 1. On the procedure:
(§1) The antiviral assays for HBV, (Doong et al., 1991, Proc. Natl. Acad. Sci. U.S.A. 88:8495-8499) HSV-1, (Bastow et al., 1983, Antimicrob. Agents Chemother. 23: 914-917) HSV-2, (Bastow et al., 1983, Antimicrob. Agents Chemother. 23:914-917) EBV, (Yao et al., 1993, Antimicrob. Agents Chemother. 37:1420-1425), CMV (Andreoni et al., 2002, J. Med. Virol. 67:33-40) and HIV (Mellors et al., 1992, Mol. Pharmacol. 41: 446-451) were performed according to the previously reported procedures. Anti-HCV activities were tested in Huh-Luc/neo cell line. Cells were seeded into 48-well plates and grown until confluent. Different concentrations of drugs were added into media (DMEM, 10% dFBS) and incubated for 3 days. At the end of 3-day treatment, medium were removed and 50 μl of Passive lysis buffer (Promega) were added. Cell lysate was shaken at room temperature for 15 min. 30 μl/well of cell lysate was transferred to another 96-well plate, 100 μl/well of luciferase activity assay substrate was added into plate and read by a luminometer (Amersham) immediately.

The next series relates to HSV-2. Briefly: In vitro antiviral assay for HSV-2. Format: cell-based, Herpes Simplex Virus 2. How it is done:
as §1

A further series has as its system HBV. Put plainly: In vitro antiviral assay for HBV (Table 1). Conditions: Hepatitis B virus, read-out: Antiviral Activities (EC50, μM) HBV. Format: cell-based, Hepatitis B virus. On the procedure: as §1
For the next series, the system named is HCV. Put plainly: Anti-HCV activity in Huh-Luc/neo cell line, luciferase activity after 3-day treatment. Format: cell-based, Hepatitis C virus. Conditions: Hepatitis C virus, 72 h; for EC50: read-out: Antiviral Activities (EC50, μM) HCV. On the procedure:
as §1

The subject of another series is EBV. Briefly: In vitro antiviral assay for EBV. Conditions: human gammaherpesvirus 4, read-out: Antiviral Activities (EC50, μM) EBV. The format is cell-based, Epstein-Barr Virus. On the procedure:
as §1

A further series relates to HIV. Briefly: In vitro antiviral assay for HIV. The format is cell-based, human immunodeficiency virus. Conditions: Human immunodeficiency virus 1, read-out: Antiviral Activities (EC50, μM) HIV, in vitro; (T) after a value means toxic. On the procedure: as §1
The nature of series [1]: Cell cytotoxicity assay on MT-2 cells. The format is cell-based. Conditions: human, read-out: Cytotoxity (ID50, μM) MT-2. On the procedure:
(§2) Cytotoxicities of test compounds on MT-2 (Mellors et al., 1992 Mol. Pharmacol. 41:446-451) and CEM (Grove et al., 1995, Cancer Res. 55:3008-3011) cells were determined according to the previously reported procedures. Hepg2 cells were seeded at a density of 10^4 cells/ml/well in 24-well plates and cultured in MEME supplemented with 10% FBS at 37° C. and 5% CO2. Each test compound at different concentrations was added on the second day of the culture and the cells were incubated for another 3 days. At the end of the incubation period, the medium was removed and 0.5 ml of 0.5% methylene blue in 50% ethanol (v/v) was added to each well and set at room temperature for 30-60 minutes. The methylene blue was removed; the plates were washed with water and allowed to air dry. Once dry, 1% sarcosyl was added to dissolve the stained cell layer. The absorbance at 595 nm was measured with a microplate reader (Molecular Devices Corp. Sunnyvale, Calif.). The cytotoxicity to CEM cell was calculated as described previously (Grove et al., 1995, Cancer Res. 55 (14): 3008-3011).

Series [2] can be described thus: Cell cytotoxicity assay on CEM cells. The format is cell-based. Conditions: human, read-out: Cytotoxity (ID50, μM) CEM. On the procedure: as §2
[3] abbreviates: Huh-Luc/neo cells, 3 days, read-out: HCV percent of inhibition.
Where [4] appears, read: Human alphaherpesvirus 1, read-out: Antiviral Activities (EC50, μM) HSV-1.
Where [5] appears, read: Human alphaherpesvirus 2, read-out: Antiviral Activities (EC50, μM) HSV-2.
[6] abbreviates: Huh-Luc/neo cells, 3 days, given as a bound only.

Like-named read-outs stand apart in the source and are kept apart here.

As a reminder, the EC50 is the concentration needed to bring the measured effect to its halfway point. For `Nc1nc2c(ncn2COCCO)c(=O)[nH]1` [ACV, reference compound], the EC50 in the series with HSV-1 (in vitro, read-out: Antiviral Activities (EC50, μM) HSV-1) was determined as 8 µM; with HSV-2 (in vitro, read-out: Antiviral Activities (EC50, μM) HSV-2) it was 21 µM.

What is called inhibition is the change of the read-out against control, counted positive when it falls. Turning to `O=C(OCc1ccccc1)c1cc2ccc3c(c2c(-c2ccc4c(c2)OCO4)c1COCc1ccccc1)OCO3` [Compound 4, 9-Benzo[1,3]dioxol-5-yl-8-benzyloxymethyl-naphtho[1,2-d][1,3]-dioxole-7-carboxylic acid benzyl ester], the EC50 in the series with HBV was greater than 10 µM; with HSV-1 (setting [4]) it was greater than 50 µM; in the series on HSV-2 (setting [5]), greater than 50 µM; with EBV, greater than 20 µM; in the series with HIV it was greater than 100 µM. Also, the inhibition at 10 µM in the series on HCV (setting [3]) is 71%. In addition, the IC50 in series [1] was greater than 100 µM; in series [2], greater than 50 µM.

With `O=C(OCCCOCc1ccccc1)c1cc2ccc3c(c2c(-c2ccc4c(c2)OCO4)c1COCc1ccccc1)OCO3` [Compound 6, 9-Benzo[1,3]dioxol-5-yl-8-benzyloxymethyl-naphtho[1,2-d][1,3]dioxole-7-carboxylic acid 3-benzyloxy-propyl ester], the concentration giving a half-maximal response (EC50) with HBV was greater than 10 µM; in the series on HSV-1 (setting [4]) it was greater than 50 µM; in the series on HSV-2 (setting [5]) it was greater than 50 µM; in the series on EBV it was greater than 20 µM; in the series with HIV it was greater than 100 µM. Moreover, the inhibition at 10 µM in the series with HCV (setting [3]) was found to be 55%. Moreover, the IC50 was greater than 100 µM in series [1] and greater than 50 µM in series [2].

Turning to `Cc1c(C(=O)OCCCO)cc2ccc3c(c2c1-c1ccc2c(c1)OCO2)OCO3` [Compound 7, 9-Benzo[1,3]dioxol-5-yl-8-methyl-naphtho[1,2-d][1,3]dioxole-7-carboxylic acid 3-hydroxy-propyl ester], the EC50 in the series on HBV is greater than 23 µM; in the series on HCV (setting [6]), greater than 10 µM; in the series on HSV-1 (setting [4]) it was greater than 25 µM; in the series on HSV-2 (setting [5]) it was greater than 25 µM; in the series on EBV it was greater than 15 µM; in the series with HIV it was greater than 10 µM. For the same compound, the IC50 in series [1] turned out to be 10 µM; in series [2], 46 µM.

`CNC(=O)c1cc2ccc3c(c2c(-c2ccc4c(c2)OCO4)c1C(=O)O)OCO3` [Compound 13, 9-Benzo[1,3]dioxol-5-yl-7-methylcarbamoyl-naphtho[1,2-d][1,3]dioxole-8-carboxylic acid]: the EC50 in the series with HBV is greater than 20 µM; in the series on HCV (setting [6]), greater than 10 µM; in the series with HSV-1 (setting [4]), 12 µM; in the series with HSV-2 (setting [5]), greater than 25 µM; in the series with EBV, greater than 20 µM; in the series with HIV, greater than 26 µM. Also, the IC50 in series [1] was found to be 26 µM; in series [2], 29 µM.

With `CN(C)C(=O)c1cc2ccc3c(c2c(-c2ccc4c(c2)OCO4)c1C(=O)O)OCO3` [Compound 14, 9-Benzo[1,3]dioxol-5-yl-7-dimethylcarbamoyl-naphtho[1,2-d][1,3]dioxole-8-carboxylic acid], the EC50 in the series on HBV is greater than 10 µM; in the series with HCV (setting [6]) it was greater than 10 µM; with HSV-1 (setting [4]) it was greater than 50 µM; with HSV-2 (setting [5]), greater than 50 µM; in the series on EBV, greater than 20 µM; in the series on HIV, greater than 70 µM. The results for the IC50 in series [1] and in series [2] were 70 µM and 76 µM, respectively.

Regarding `COc1ccc(-c2c(C(=O)O)c(C(N)=O)cc3ccc4c(c23)OCO4)cc1OC` [Compound 15, 7-Carbamoyl-9-(3,4-dimethoxy-phenyl)-naphtho[1,2-d][1,3]dioxole-8-carboxylic acid], the EC50 is 0.8 µM in the series on HBV; 0.8 µM in the series with HSV-1 (setting [4]); greater than 3 µM in the series on HSV-2 (setting [5]); greater than 20 µM in the series on EBV; greater than 10 µM in the series with HIV. Further, the inhibition at 3 µM in the series on HCV (at 3 μM, Huh-Luc/neo cells, 3 days, read-out: HCV percent of inhibition) is 64%. In addition, the IC50 in series [1] came to 10 µM; in series [2] it was 3 µM.

As to `O=C1NCc2c1cc1ccc3c(c1c2-c1ccc2c(c1)OCO2)OCO3` [Compound 18, 10-Benzo[1,3]dioxol-5-yl-8,9-dihydro-1,3-dioxa-8-aza-dicyclopenta[a,g]naphthalen-7-one], the EC50 with HBV was 0.08 µM; with HSV-1 (setting [4]) it was 0.29 µM; in the series with HSV-2 (setting [5]) it was 0.16 µM; with EBV, 11 µM; with HIV, greater than 4 µM. In addition, the inhibition at 1 µM with HCV (at 1 μM, Huh-Luc/neo cells, 3 days, read-out: HCV percent of inhibition) is 55%. Also, the figures for the IC50 in series [1] and in series [2] were 4 µM and 4.5 µM, respectively.

Consider `O=C1c2cc3ccc4c(c3c(-c3ccc5c(c3)OCO5)c2CN1CCCOCc1ccccc1)OCO4` [Compound 20, 10-Benzo[1,3]dioxol-5-yl-8-(3-benzyloxy-propyl)-8,9-dihydro-1,3-dioxa-8-aza-dicyclopenta[a,g]naphthalen-7-one], for which the EC50 is greater than 20 µM in the series with HBV; 13 µM in the series with HSV-1 (setting [4]); greater than 20 µM with HSV-2 (setting [5]); greater than 20 µM with EBV; greater than 28 µM in the series on HIV. The inhibition at 10 µM with HCV (setting [3]) is 85%. Further, the IC50 in series [1] was 28 µM; in series [2] it was 67 µM.

Turning to `CN1C(=O)c2cc3ccc4c(c3c(-c3ccc5c(c3)OCO5)c2C1=O)OCO4` [Compound 23], the EC50 in the series on HBV is greater than 10 µM; in the series on HCV, greater than 10 µM; in the series with HSV-1 (setting [4]) it was greater than 50 µM; with HSV-2 (setting [5]), greater than 50 µM; in the series with EBV, greater than 20 µM; with HIV, greater than 100 µM. For the same compound, the IC50 in series [1] and in series [2] was greater than 100 µM each time.

On to `CC(=O)NN1Cc2c(cc3ccc4c(c3c2-c2ccc3c(c2)OCO3)OCO4)C1=O` [Compound 26, N-(10-Benzo[1,3]dioxol-5-yl-7-oxo-7,9-dihydro-1,3-dioxa-8-aza-dicyclopenta[a,g]naphthalen-8-yl)-acetamide], for which the half-maximal effective concentration (EC50) in the series on HBV is 1 µM; with HCV (setting [6]), greater than 10 µM; with HSV-1 (setting [4]) it was 5 µM; in the series with HSV-2 (setting [5]), 10 µM; with EBV, 13 µM; in the series with HIV, greater than 7 µM. The figures for the IC50 in series [1] and in series [2] were 7 µM and 40 µM, respectively.

In the case of `CC(=O)NN1Cc2cc3ccc4c(c3c(-c3ccc5c(c3)OCO5)c2C1=O)OCO4` [Compound 27, N-(10-Benzo[1,3]dioxol-5-yl-9-oxo-7,9-dihydro-1,3-dioxa-8-aza-dicyclopenta[a,g]naphthalen-8-yl)-acetamide], the EC50 in the series on HBV is greater than 20 µM; in the series with HSV-1 (setting [4]), 17 µM; in the series with HSV-2 (setting [5]), 40 µM; in the series on EBV, greater than 20 µM; with HIV, greater than 25 µM. Further, the inhibition at 10 µM in the series with HCV (setting [3]) came out at 25%. For the same compound, the values for the IC50 in series [1] and in series [2] were 25 µM and 32 µM, respectively.

Consider `O=c1[nH][nH]c(=O)c2c(-c3ccc4c(c3)OCO4)c3c4c(ccc3cc12)OCO4` [Compound 28, 11-Benzo[1,3]dioxol-5-yl-8,9-dihydro-1,3-dioxa-8,9-diaza-cyclopenta[a]anthracene-7,10-dione], for which the EC50 in the series with HBV was 0.03 µM; in the series on HSV-1 (setting [4]), 1.4 µM; in the series with HSV-2 (setting [5]), 1.4 µM; in the series with EBV, greater than 25 µM. Also, the inhibition at 10 µM in the series on HCV (setting [3]) worked out at 74%. Further, the results for the IC50 in series [1] and in series [2] were 16 µM and 50 µM, respectively.

Turning to `Nc1ccn([C@H]2CC[C@@H](CO)O2)c(=O)n1` [ddC, 2′,3′-Dideoxycytidine, reference compound], the EC50 in the series on HIV is 0.8 µM. Moreover, the IC50 in series [1] stood at 70 µM; in series [2] it was 5 µM.
